Assay results as given in patent US7928098B2, “Therapeutic and/or preventive agents for a sleep disorder” (Kyowa Hakko Kirin Co., Ltd., priority 2005, dated 2011).

Tests used:
ddY male mice = assay: Effect on pentobarbital sodium-induced sleeping time (loss of righting reflex); format: in vivo; conditions: test compound 10 mg/kg p.o. one hour before pentobarbital-Na 25 mg/kg s.c.
Description: The test was conducted to examine influence of Compound (I) of the present invention on pentobarbital sodium-induced sleeping time, according to the method of Iyakuhin no Kaihatsu, Vol. 9, Iyakuhin no Tansaku I, “antihypnotic”, p. 220-226, Hirokawa Shoten.
For the test, ddY male mice (19-21 g body weight; Japan SLC, Inc.) were used. All test compounds were used by suspending in distilled water (Otsuka Pharmaceutical Factory, Inc.) containing 0.5 volume/weight % methylcellulose (0.5% MC: Wako Pure Chemical Industries, Ltd.). A volume of 0.1 mL was administered per 10 g body weight of mice.
Groups of seven mice were used. To the control groups were orally administrated 0.5% MC, whereas a suspension of the test compound was orally administered to the test compound administered groups. One hour after the administration, pentobarbital sodium (pentobarbital-Na: Tokyo Chemical Industry Co., Ltd., 25 mg/kg) was administered subcutaneously. Mouse placed in a recumbent position, the mouse immediately returns to a proper upright position (this is known as righting reflex). However, the administration of pentobarbital sodium eliminated the righting reflex in the control groups. The time period in which the administration of […] eliminated the righting reflex was regarded as a sleeping time. By a measurement of time disappearing righting reflex immediately after the administration, the sleeping time was determined.

[1] = Table 5-1, groups of seven, controls 52.12 ± 5.20 (r5) and 35.56 ± 5.21 (r11)
[2] = Table 5-2, groups of seven, controls 40.00 ± 5.32 (r5) and 45.87 ± 4.17 (r12)

Row | SMILES | Sleeping time (min) Mean value ± standard deviation (ddY male mice; [1]) [min] | melting point | Sleeping time (min) Mean value ± standard deviation (ddY male mice; [2]) [min]
1 | N#Cc1ccc(C(=O)Nc2nc(-c3ccco3)c(C(=O)C3CCOCC3)s2)o1 [Compound 420, 5-Cyano-N-[4-(2-furyl)-5-(tetrahydropyran-4-ylcarbonyl)-thiazol-2-yl]furan-2-carboxamide] | 0.00 ± 0.00 | 222 to 223 °C | 
2 | O=C(Nc1nc(-c2ccco2)c(C(=O)C2CCOCC2)s1)C1CC1 [Compound 361, N-[4-(2-Furyl)-5-(tetrahydropyran-4-ylcarbonyl)thiazol-2-yl]cyclopropanecarboxamide] | 1.65 ± 1.40 | 182 to 183 °C | 
3 | O=C(Nc1nc(-c2ccco2)c(C(=O)C2CCOCC2)s1)c1ccc(Cl)cc1 [Compound 376, 4-Chloro-N-[4-(2-furyl)-5-(tetrahydropyran-4-ylcarbonyl)-thiazol-2-yl]benzamide] | 0.00 ± 0.00 | 204 to 206 °C | 
4 | Cc1ccc(C(=O)Nc2nc(-c3ccco3)c(C(=O)C3CCOCC3)s2)cc1 [Compound 365, N-[4-(2-Furyl)-5-(tetrahydropyran-4-ylcarbonyl)thiazol-2-yl]-4-methylbenzamide] |  | 190 to 192 °C | 0.05 ± 0.05
5 | O=C(Nc1nc(-c2ccco2)c(C(=O)c2ccccn2)s1)c1ccco1 [Compound 142, N-[4-(2-Furyl)-5-(pyridin-2-ylcarbonyl)thiazol-2-yl]furan-2-carboxamide] |  | 184 to 185 °C | 4.52 ± 4.41
6 | O=C(Nc1nc(-c2ccco2)c(C(=O)C2CCOCC2)s1)c1ccco1 [Compound 416, N-[4-(2-Furyl)-5-(tetrahydropyran-4-ylcarbonyl)thiazol-2-yl]furan-2-carboxamide] | 0.06 ± 0.06 | 196 to 198 °C | 
7 | O=C(c1ccccn1)c1sc(NC(=O)C2CC2)nc1-c1ccco1 [Compound 99, N-[4-(2-Furyl)-5-(pyridin-2-ylcarbonyl)thiazol-2-yl]cyclopropanecarboxamide] |  | 191 to 192 °C | 0.05 ± 0.02
8 | N#Cc1ccc(C(=O)Nc2nc(-c3ccco3)c(C(=O)c3ccccn3)s2)cc1 [Compound 114, 4-Cyano-N-[4-(2-furyl)-5-(pyridin-2-ylcarbonyl)thiazol-2-yl]benzamide] |  | 232 to 235 °C | 0.63 ± 0.53
9 | O=C(Nc1nc(-c2ccco2)c(-c2ccncc2)s1)c1ccncc1 [Compound 1, N-[4-(2-Furyl)-5-(4-pyridyl)thiazol-2-yl]pyridine-4-carboxamide] | 15.58 ± 8.50 |  | 
10 | O=C(Nc1nc(-c2ccco2)c(-c2ccncc2)s1)c1ccc(Cn2ccnc2)cc1 [Compound 11, N-[4-(2-Furyl)-5-(4-pyridyl)thiazol-2-yl]-4-(imidazole-1-ylmethyl)benzamide] | 22.75 ± 6.63 |  | 
11 | O=C(Nc1nc(-c2ccco2)c(-c2ccncc2)s1)c1ccoc1 [Compound 8, N-[4-(2-Furyl)-5-(4-pyridyl)thiazol-2-yl]furan-3-carboxamide] | 4.16 ± 4.16 |  | 
12 | O=C(Nc1nc(-c2ccco2)c(C(=O)C2CCOCC2)s1)c1ccc(Cl)nc1 [Compound 407, 2-Chloro-N-[4-(2-furyl)-5-(tetrahydropyran-4-ylcarbonyl)-thiazol-2-yl]pyridine-5-carboxamide] | 0.00 ± 0.00 | 233 to 235 °C | 
13 | O=C(CN1CCOCC1)Nc1nc(-c2ccco2)c(C(=O)C2CCOCC2)s1 [Compound 463, N-[4-(2-Furyl)-5-(tetrahydropyran-4-ylcarbonyl)thiazol-2-yl]-2-morpholinoacetamide] |  |  | 0.00 ± 0.00
14 | O=C(Nc1nc(-c2ccco2)c(C(=O)C2CCOCC2)s1)c1ccc(F)cc1 [Compound 373, 4-Fluoro-N-[4-(2-furyl)-5-(tetrahydropyran-4-ylcarbonyl)-thiazol-2-yl]benzamide] |  | 131 to 132 °C | 0.03 ± 0.02
15 | Cc1ncc(C(=O)Nc2nc(-c3ccco3)c(C(=O)c3ccccn3)s2)cn1 [Compound 136, N-[4-(2-Furyl)-5-(pyridin-2-ylcarbonyl)thiazol-2-yl]-2-methylpyrimidine-5-carboxamide] | 1.89 ± 1.81 | 255 to 265 °C (dec.) | 
16 | O=C(Nc1nc(-c2ccco2)c(C(=O)C2CCCC2)s1)c1ccncc1 [Compound 336, N-[5-(Cyclopentylcarbonyl)-4-(2-furyl)thiazol-2-yl]pyridine-4-carboxamide] |  | 168 to 181 °C | 1.60 ± 1.56
17 | O=C(Nc1nc(-c2ccco2)c(-c2ccncc2)s1)c1ccco1 [Compound 7, N-[4-(2-Furyl)-5-(4-pyridyl)thiazol-2-yl]furan-2-carboxamide] | 6.38 ± 4.58 |  | 
18 | Cc1ccc(C(=O)Nc2nc(-c3ccco3)c(C(=O)C3CCOCC3)s2)cn1 [Compound 409, N-[4-(2-Furyl)-5-(tetrahydropyran-4-ylcarbonyl)thiazol-2-yl]-2-methylpyridine-5-carboxamide] |  |  | 0.05 ± 0.05
19 | O=C(Nc1nc(-c2ccco2)c(C(=O)c2ccccn2)s1)c1ccncc1 [Compound 95, N-[4-(2-Furyl)-5-(pyridin-2-ylcarbonyl)thiazol-2-yl]pyridine-4-carboxamide] | 0.45 ± 0.45 | 218 to 227 °C | 
20 | COc1cccc(C(=O)Nc2nc(-c3ccco3)c(C(=O)C3CCOCC3)s2)c1 [Compound 367, N-[4-(2-Furyl)-5-(tetrahydropyran-4-ylcarbonyl)thiazol-2-yl]-3-methoxybenzamide] | 0.10 ± 0.10 | 198 to 200 °C | 
21 | O=C(Nc1nc(-c2ccco2)c(C(=O)C2CCOCC2)s1)c1ccncc1 [Compound 360, N-[4-(2-Furyl)-5-(tetrahydropyran-4-ylcarbonyl)thiazol-2-yl]pyridine-4-carboxamide] |  | 202 to 209 °C | 0.03 ± 0.02
22 | O=C(Nc1nc(-c2ccco2)c(C(=O)c2ccc(F)cc2)s1)c1ccncc1 [Compound 78, N-[5-(4-Fluorobenzoyl)-4-(2-furyl)thiazol-2-yl]pyridine-4-carboxamide] |  |  | 8.66 ± 4.67
23 | COC(=O)Nc1nc(-c2ccco2)c(C(=O)c2ccccn2)s1 [Compound 157, Methyl N-[4-(2-furyl)-5-(pyridin-2-ylcarbonyl)thiazol-2-yl]carbamate] |  |  | 9.39 ± 5.68
